Active and inactive are the calls of the source. The calls are words filed in the database; no cut-off is given here.

Holding throughout (format): functional, cell-based
One experiment concerns HEK-293T. Put plainly: Effect on intracellular calcium level in mock-transfected HEK293T cells at 100 uM FLIPR assay. The following applies: Homo sapiens. (In general: A change in cytosolic calcium serves as a functional read-out for many receptors and channels.)
Experiment [1] deals with T1, Taste receptor type 2 member 1 (Homo sapiens) (UniProt Q9NYW7).
T1 sequence (whole entry): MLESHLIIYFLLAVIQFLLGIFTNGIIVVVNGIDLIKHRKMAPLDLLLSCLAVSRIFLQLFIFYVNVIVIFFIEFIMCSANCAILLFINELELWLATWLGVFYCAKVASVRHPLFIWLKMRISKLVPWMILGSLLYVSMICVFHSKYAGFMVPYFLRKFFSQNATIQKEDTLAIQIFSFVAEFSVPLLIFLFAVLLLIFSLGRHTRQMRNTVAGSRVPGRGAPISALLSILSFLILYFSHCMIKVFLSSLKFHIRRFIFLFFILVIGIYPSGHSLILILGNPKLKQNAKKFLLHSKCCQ
The experiment is described as follows: Antagonist activity at recombinant human N-terminal rat ST3 receptor-fused TAS2R1 expressed in HEK293T cells co-expressing Galpha16gust44 assessed as inhibition of trans-isocohumulone-induced increase in intracellular calcium level at 100 uM by FLIPR assay.

Experiment [2] deals with T2, Taste receptor type 2 member 39 (Homo sapiens) (UniProt P59534).
T2 sequence (whole entry): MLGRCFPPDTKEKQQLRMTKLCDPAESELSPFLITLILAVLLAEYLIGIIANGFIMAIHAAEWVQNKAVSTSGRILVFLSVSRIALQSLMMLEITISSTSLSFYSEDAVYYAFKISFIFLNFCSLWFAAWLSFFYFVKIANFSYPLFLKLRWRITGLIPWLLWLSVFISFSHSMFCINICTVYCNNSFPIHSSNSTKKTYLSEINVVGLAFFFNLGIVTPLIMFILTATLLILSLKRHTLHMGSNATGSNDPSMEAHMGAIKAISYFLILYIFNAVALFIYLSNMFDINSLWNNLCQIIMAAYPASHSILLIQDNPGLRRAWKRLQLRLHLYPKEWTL
Put plainly: Antagonist activity at recombinant human N-terminal rat ST3 receptor-fused TAS2R39 expressed in HEK293T cells co-expressing Galpha16gust44 assessed as inhibition of epigallocatechin galiate-induced increase in intracellular calcium level at 100 uM by FLIPR assay.

Experiment [3] addresses T3, Taste receptor type 2 member 16 (Homo sapiens) (UniProt Q9NYV7).
T3 sequence (whole entry): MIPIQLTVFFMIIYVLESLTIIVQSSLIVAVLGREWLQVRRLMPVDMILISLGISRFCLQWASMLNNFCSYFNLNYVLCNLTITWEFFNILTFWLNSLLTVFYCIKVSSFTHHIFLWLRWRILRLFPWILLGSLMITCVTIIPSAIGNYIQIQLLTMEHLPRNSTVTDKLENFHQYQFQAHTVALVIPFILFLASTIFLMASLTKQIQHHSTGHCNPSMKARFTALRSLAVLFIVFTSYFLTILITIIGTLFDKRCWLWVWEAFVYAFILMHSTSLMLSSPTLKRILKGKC
The experiment is described as follows: Antagonist activity at recombinant human N-terminal rat ST3 receptor-fused TAS2R16 expressed in HEK293T cells co-expressing Galpha16gust44 assessed as inhibition of D-salicin-induced increase in intracellular calcium level at 100 uM by FLIPR assay.

The target in experiment [4] is T4, Taste receptor type 2 member 43 (Homo sapiens) (UniProt P59537).
T4 sequence (whole entry): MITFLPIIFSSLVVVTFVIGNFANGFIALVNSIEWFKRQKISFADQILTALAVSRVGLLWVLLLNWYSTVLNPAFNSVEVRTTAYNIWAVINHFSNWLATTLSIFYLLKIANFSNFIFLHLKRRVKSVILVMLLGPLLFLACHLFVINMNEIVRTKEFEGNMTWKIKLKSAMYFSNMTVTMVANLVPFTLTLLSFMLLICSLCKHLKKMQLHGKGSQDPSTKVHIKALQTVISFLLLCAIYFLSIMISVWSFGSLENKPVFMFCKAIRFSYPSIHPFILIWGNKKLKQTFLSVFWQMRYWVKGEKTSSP
Put plainly: Antagonist activity at recombinant human N-terminal rat ST3 receptor-fused TAS2R43 expressed in HEK293T cells co-expressing Galpha16gust44 assessed as inhibition of aristolochic acid-induced intracellular calcium level at 100 uM by FLIPR assay.

Experiment [5] deals with T5, Taste receptor type 2 member 30 (Homo sapiens) (UniProt P59541).
T5 sequence (whole entry): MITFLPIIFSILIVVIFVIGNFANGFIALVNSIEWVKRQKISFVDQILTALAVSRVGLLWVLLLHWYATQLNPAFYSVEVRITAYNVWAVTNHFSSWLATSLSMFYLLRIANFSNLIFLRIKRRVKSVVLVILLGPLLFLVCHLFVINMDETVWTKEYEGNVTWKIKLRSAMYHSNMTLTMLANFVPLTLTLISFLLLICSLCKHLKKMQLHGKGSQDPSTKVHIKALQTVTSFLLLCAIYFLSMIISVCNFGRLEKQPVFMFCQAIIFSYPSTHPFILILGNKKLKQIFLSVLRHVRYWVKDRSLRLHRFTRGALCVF
The experiment is described as follows: Antagonist activity at recombinant human N-terminal rat ST3 receptor-fused TAS2R47 expressed in HEK293T cells co-expressing Galpha16gust44 assessed as inhibition of brucine-induced intracellular calcium level at 100 uM by FLIPR assay.

Experiment [6] concerns the target T6, Taste receptor type 2 member 46 (Homo sapiens) (UniProt P59540).
T6 sequence (whole entry): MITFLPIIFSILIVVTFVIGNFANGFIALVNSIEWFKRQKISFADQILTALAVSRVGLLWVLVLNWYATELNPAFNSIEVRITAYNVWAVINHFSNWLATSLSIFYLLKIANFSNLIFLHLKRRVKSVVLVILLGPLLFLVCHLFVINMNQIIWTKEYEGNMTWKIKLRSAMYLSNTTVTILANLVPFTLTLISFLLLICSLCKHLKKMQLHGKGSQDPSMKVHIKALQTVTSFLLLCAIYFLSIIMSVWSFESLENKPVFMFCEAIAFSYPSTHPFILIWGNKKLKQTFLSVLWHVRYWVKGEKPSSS
Put plainly: Antagonist activity at recombinant human N-terminal rat ST3 receptor-fused TAS2R46 expressed in HEK293T cells co-expressing Galpha16gust44 assessed as inhibition of picrotoxinin-induced intracellular calcium level at 100 uM by FLIPR assay.

For experiment [7], the target named is T7, Taste receptor type 2 member 50 (Homo sapiens) (UniProt P59544).
T7 sequence (whole entry): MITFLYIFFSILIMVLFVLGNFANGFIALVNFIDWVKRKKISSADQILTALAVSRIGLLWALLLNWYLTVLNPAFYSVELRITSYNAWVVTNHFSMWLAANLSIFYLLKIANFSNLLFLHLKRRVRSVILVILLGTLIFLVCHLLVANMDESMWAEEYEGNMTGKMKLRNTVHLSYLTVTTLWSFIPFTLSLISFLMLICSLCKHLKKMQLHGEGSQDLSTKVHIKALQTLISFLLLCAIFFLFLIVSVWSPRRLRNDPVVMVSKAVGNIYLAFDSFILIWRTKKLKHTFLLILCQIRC
The experiment is described as follows: Agonist activity at recombinant human N-terminal rat ST3 receptor-fused TAS2R50 expressed in HEK293T cells co-expressing Galpha16gust44 assessed as increase in intracellular calcium level at 100 uM by FLIPR assay.

For `C/C1=C\C[C@H](O)[C@@H](C)C[C@H]2OC(=O)[C@@H](C)[C@@H]2CC1`, the outcome in the experiment with HEK-293T was inactive. Moreover, the inhibition entry in experiment [1], in experiment [2] and in experiment [3] was “inactive” in each case. Moreover, the inhibition entry in experiment [4], in experiment [5] and in experiment [6] was “Active” in each case.
Consider `C/C1=C\C[C@H](O)/C(C)=C/[C@H]2OC(=O)[C@@H](C)[C@@H]2CC1`, for which the result (in experiment [7]; in the experiment with HEK-293T) was inactive. The inhibition entry in experiment [1], in experiment [2] and in experiment [3] was “inactive” throughout. Moreover, the inhibition entry in experiment [4], in experiment [5] and in experiment [6] was “Active” in each case.

Source of the values: ChEMBL document CHEMBL4418912, “Methods of identifying antagonists of the hTAS2R46 bitter taste receptor” (2014).
